Assay results reported in article PMC9571063 (Molecules, 2022).
pIC50: −log10 of the molar value. Like-named read-outs stand apart in the source and are kept apart here.

How the values were obtained:
ALK = target: T1, ALK (Homo sapiens, UniProt Q9UM73); experiment: KINOMEscan; assay type: binding; details: read-out: Percent Control
T1 construct: purchased Eurofins DiscoverX KINOMEscan (scanMAX 468)

ASK2 = target: T2, ASK2 (Homo sapiens, UniProt O95382); experiment: KINOMEscan; assay type: binding; details: read-out: Percent Control
T2 construct: purchased Eurofins DiscoverX KINOMEscan (scanMAX 468)

AURKB = target: T3, AURKB (Homo sapiens, UniProt Q96GD4); experiment: KINOMEscan; assay type: binding; details: read-out: Percent Control
T3 construct: purchased Eurofins DiscoverX KINOMEscan (scanMAX 468)

AURKC = target: T4, AURKC (Homo sapiens, UniProt Q9UQB9); experiment: KINOMEscan; assay type: binding; details: read-out: Percent Control
T4 construct: purchased Eurofins DiscoverX KINOMEscan (scanMAX 468)

CDC2L2 = target: T5, CDC2L2 (Homo sapiens, UniProt Q9UQ88); experiment: KINOMEscan; assay type: binding; details: read-out: Percent Control
T5 construct: purchased Eurofins DiscoverX KINOMEscan (scanMAX 468)

CSK = target: T6, CSK (Homo sapiens, UniProt P41240); experiment: KINOMEscan; assay type: binding; details: read-out: Percent Control
T6 construct: purchased Eurofins DiscoverX KINOMEscan (scanMAX 468)

DAPK3 = target: T7, DAPK3 (Homo sapiens, UniProt O43293); experiment: KINOMEscan; assay type: binding; details: read-out: Percent Control
T7 construct: purchased Eurofins DiscoverX KINOMEscan (scanMAX 468)

EGFR(T790M) = target: T8, EGFR(T790M) (Homo sapiens, UniProt P00533, T790M); experiment: KINOMEscan; assay type: binding; details: read-out: Percent Control
T8 construct: purchased Eurofins DiscoverX KINOMEscan (scanMAX 468)

EIF2AK1 = target: T9, EIF2AK1 (Homo sapiens, UniProt Q9BQI3); experiment: KINOMEscan; assay type: binding; details: read-out: Percent Control
T9 construct: purchased Eurofins DiscoverX KINOMEscan (scanMAX 468)

ERBB2 = target: T10, ERBB2 (Homo sapiens, UniProt P04626); experiment: KINOMEscan; assay type: binding; details: read-out: Percent Control
T10 construct: purchased Eurofins DiscoverX KINOMEscan (scanMAX 468)

FLT3 = target: T11, FLT3 (Homo sapiens, UniProt P36888); experiment: KINOMEscan; assay type: binding; details: read-out: Percent Control
T11 construct: purchased Eurofins DiscoverX KINOMEscan (scanMAX 468)

FLT3-autoinhibited = target: T12, FLT3-autoinhibited (Homo sapiens, UniProt P36888); experiment: KINOMEscan; assay type: binding; details: read-out: Percent Control
T12 construct: purchased Eurofins DiscoverX KINOMEscan (scanMAX 468)

FLT4 = target: T13, FLT4 (Homo sapiens, UniProt P35916); experiment: KINOMEscan; assay type: binding; details: read-out: Percent Control
T13 construct: purchased Eurofins DiscoverX KINOMEscan (scanMAX 468)
T13 sequence (P35916 25-1363): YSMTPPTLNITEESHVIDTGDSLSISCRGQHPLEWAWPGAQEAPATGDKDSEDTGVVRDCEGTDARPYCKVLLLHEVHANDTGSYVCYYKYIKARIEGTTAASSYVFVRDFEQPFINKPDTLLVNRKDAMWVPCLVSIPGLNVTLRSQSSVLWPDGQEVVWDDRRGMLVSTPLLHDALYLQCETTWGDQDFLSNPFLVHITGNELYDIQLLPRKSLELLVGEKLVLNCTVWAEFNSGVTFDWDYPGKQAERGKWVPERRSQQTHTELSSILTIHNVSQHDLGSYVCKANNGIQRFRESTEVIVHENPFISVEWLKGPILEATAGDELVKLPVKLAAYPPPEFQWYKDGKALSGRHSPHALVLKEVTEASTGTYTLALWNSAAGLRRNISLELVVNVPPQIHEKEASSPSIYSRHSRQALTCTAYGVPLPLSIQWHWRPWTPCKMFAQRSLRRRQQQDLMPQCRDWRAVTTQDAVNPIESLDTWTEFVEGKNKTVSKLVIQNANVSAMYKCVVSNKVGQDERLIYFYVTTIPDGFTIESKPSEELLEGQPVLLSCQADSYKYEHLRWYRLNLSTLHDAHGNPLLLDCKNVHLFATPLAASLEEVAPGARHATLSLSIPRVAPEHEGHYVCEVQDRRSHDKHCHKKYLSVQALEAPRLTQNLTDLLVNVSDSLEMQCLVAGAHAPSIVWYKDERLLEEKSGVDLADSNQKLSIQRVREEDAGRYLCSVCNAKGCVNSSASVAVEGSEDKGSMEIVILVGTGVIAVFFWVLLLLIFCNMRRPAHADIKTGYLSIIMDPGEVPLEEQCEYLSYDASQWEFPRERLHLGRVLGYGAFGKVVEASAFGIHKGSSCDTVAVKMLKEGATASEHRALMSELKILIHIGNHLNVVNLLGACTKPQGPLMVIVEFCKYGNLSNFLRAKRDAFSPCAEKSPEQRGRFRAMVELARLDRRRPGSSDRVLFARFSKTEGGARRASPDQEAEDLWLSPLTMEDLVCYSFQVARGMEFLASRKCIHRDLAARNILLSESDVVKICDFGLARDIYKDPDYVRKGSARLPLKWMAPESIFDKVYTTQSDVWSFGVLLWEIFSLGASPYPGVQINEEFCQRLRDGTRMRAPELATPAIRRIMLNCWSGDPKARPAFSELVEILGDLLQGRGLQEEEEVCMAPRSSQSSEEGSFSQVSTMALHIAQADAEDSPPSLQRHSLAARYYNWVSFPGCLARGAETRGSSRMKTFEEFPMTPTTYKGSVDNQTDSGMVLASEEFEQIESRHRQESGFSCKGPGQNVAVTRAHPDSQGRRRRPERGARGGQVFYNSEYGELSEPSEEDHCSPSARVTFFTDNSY

GRK4 = target: T14, GRK4 (Homo sapiens, UniProt P32298); experiment: KINOMEscan; assay type: binding; details: read-out: Percent Control
T14 construct: purchased Eurofins DiscoverX KINOMEscan (scanMAX 468)

IKK-epsilon = target: T15, IKK-epsilon (Homo sapiens, UniProt Q14164); experiment: KINOMEscan; assay type: binding; details: read-out: Percent Control
T15 construct: purchased Eurofins DiscoverX KINOMEscan (scanMAX 468)

KIT(A829P) = target: T16, KIT(A829P) (Homo sapiens, UniProt P10721, A829P); experiment: KINOMEscan; assay type: binding; details: read-out: Percent Control
T16 construct: purchased Eurofins DiscoverX KINOMEscan (scanMAX 468)

LRRK2(G2019S) = target: T17, LRRK2(G2019S) (Homo sapiens, UniProt Q5S007, G2019S); experiment: KINOMEscan; assay type: binding; details: read-out: Percent Control
T17 construct: purchased Eurofins DiscoverX KINOMEscan (scanMAX 468)

MAP4K4 = target: T18, MAP4K4 (Homo sapiens, UniProt O95819); experiment: KINOMEscan; assay type: binding; details: read-out: Percent Control
T18 construct: purchased Eurofins DiscoverX KINOMEscan (scanMAX 468)
T18 sequence (O95819 whole entry): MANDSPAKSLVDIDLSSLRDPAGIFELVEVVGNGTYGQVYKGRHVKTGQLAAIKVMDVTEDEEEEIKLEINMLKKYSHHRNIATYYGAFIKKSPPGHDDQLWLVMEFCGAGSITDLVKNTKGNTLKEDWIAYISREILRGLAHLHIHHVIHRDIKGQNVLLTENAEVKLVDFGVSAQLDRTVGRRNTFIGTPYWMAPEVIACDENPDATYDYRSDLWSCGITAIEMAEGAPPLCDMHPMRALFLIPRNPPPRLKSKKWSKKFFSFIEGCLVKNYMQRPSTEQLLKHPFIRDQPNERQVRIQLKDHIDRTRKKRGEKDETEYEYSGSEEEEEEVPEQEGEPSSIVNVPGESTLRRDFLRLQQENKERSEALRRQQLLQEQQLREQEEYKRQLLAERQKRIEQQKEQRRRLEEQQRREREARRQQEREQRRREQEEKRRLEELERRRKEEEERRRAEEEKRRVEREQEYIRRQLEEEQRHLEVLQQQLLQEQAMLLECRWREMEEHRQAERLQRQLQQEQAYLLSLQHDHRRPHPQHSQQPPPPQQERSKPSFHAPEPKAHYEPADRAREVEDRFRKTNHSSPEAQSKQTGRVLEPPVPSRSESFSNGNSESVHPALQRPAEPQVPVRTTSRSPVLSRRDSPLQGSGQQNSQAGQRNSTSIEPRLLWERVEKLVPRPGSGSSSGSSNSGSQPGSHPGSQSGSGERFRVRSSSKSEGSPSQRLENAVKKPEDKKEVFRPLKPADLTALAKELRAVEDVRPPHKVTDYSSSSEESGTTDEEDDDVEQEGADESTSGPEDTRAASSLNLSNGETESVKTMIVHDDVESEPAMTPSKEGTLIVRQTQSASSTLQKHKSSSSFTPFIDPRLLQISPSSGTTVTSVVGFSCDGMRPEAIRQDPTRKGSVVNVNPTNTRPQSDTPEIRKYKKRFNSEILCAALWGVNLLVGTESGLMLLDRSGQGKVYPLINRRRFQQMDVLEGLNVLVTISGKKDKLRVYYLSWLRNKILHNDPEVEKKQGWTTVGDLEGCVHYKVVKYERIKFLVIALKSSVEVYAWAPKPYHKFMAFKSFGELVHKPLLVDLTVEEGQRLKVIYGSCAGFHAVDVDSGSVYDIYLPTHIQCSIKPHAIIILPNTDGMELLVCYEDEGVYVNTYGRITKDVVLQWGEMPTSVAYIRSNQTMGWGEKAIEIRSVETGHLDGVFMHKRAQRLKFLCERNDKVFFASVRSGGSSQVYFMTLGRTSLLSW

MAPKAPK2 = target: T19, MAPKAPK2 (Homo sapiens, UniProt P49137); experiment: KINOMEscan; assay type: binding; details: read-out: Percent Control
T19 construct: purchased Eurofins DiscoverX KINOMEscan (scanMAX 468)

MST1 = target: T20, MST1 (Homo sapiens, UniProt Q13043); experiment: KINOMEscan; assay type: binding; details: read-out: Percent Control
T20 construct: purchased Eurofins DiscoverX KINOMEscan (scanMAX 468)

MST4 = target: T21, MST4 (Homo sapiens, UniProt Q9P289); experiment: KINOMEscan; assay type: binding; details: read-out: Percent Control
T21 construct: purchased Eurofins DiscoverX KINOMEscan (scanMAX 468)

MYO3B = target: T22, MYO3B (Homo sapiens, UniProt Q8WXR4); experiment: KINOMEscan; assay type: binding; details: read-out: Percent Control
T22 construct: purchased Eurofins DiscoverX KINOMEscan (scanMAX 468)

NEK1 = target: T23, NEK1 (Homo sapiens, UniProt Q96PY6); experiment: KINOMEscan; assay type: binding; details: read-out: Percent Control
T23 construct: purchased Eurofins DiscoverX KINOMEscan (scanMAX 468)
T23 sequence (Q96PY6 whole entry): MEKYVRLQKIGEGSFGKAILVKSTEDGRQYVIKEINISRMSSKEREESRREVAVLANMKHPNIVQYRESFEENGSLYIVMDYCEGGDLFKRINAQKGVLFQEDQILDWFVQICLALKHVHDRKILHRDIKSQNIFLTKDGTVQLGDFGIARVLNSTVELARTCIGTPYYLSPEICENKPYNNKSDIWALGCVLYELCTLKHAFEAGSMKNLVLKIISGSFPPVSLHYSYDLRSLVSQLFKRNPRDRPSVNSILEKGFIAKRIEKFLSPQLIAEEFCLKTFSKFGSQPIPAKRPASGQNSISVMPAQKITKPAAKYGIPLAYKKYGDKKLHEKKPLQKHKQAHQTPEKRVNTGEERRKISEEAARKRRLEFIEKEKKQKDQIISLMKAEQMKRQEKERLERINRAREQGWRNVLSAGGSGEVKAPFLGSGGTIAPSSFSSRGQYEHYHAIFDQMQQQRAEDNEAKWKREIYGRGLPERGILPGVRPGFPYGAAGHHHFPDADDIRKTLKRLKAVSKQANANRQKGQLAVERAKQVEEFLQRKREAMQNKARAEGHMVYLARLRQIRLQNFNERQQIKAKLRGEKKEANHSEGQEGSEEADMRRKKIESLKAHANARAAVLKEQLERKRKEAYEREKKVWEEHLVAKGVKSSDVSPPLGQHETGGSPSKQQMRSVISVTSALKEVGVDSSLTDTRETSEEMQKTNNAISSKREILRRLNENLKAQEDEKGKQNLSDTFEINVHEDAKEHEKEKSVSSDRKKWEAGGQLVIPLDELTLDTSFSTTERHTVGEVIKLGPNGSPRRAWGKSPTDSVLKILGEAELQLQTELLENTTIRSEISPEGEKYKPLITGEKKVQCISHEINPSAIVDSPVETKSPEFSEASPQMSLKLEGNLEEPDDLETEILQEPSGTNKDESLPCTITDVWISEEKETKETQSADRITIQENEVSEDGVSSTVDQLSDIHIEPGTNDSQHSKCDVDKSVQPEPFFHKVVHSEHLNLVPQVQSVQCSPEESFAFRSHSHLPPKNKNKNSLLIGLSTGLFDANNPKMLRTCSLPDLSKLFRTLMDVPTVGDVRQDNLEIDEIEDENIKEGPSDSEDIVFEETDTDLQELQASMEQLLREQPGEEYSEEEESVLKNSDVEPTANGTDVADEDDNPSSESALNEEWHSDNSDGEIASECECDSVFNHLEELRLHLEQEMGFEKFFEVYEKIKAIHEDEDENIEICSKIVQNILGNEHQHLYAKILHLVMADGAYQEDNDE

NEK4 = target: T24, NEK4 (Homo sapiens, UniProt P51957); experiment: KINOMEscan; assay type: binding; details: read-out: Percent Control
T24 construct: purchased Eurofins DiscoverX KINOMEscan (scanMAX 468)

NEK5 = target: T25, NEK5 (Homo sapiens, UniProt Q6P3R8); experiment: KINOMEscan; assay type: binding; details: read-out: Percent Control
T25 construct: purchased Eurofins DiscoverX KINOMEscan (scanMAX 468)

NIK = target: T26, NIK (Homo sapiens, UniProt Q99558); experiment: KINOMEscan; assay type: binding; details: read-out: Percent Control
T26 construct: purchased Eurofins DiscoverX KINOMEscan (scanMAX 468)

PCTK1 = target: T27, PCTK1 (Homo sapiens, UniProt Q00536); experiment: KINOMEscan; assay type: binding; details: read-out: Percent Control
T27 construct: purchased Eurofins DiscoverX KINOMEscan (scanMAX 468)

PFCDPK1(P.falciparum) = target: T28, PFCDPK1(P.falciparum) (Plasmodium falciparum, UniProt P62344); experiment: KINOMEscan; assay type: binding; details: read-out: Percent Control
T28 construct: purchased Eurofins DiscoverX KINOMEscan (scanMAX 468)

PIK3CD = target: T29, PIK3CD (Homo sapiens, UniProt O00329); experiment: KINOMEscan; assay type: binding; details: read-out: Percent Control
T29 construct: purchased Eurofins DiscoverX KINOMEscan (scanMAX 468)

PKN1 = target: T30, PKN1 (Homo sapiens, UniProt Q16512); experiment: KINOMEscan; assay type: binding; details: read-out: Percent Control
T30 construct: purchased Eurofins DiscoverX KINOMEscan (scanMAX 468)

PLK3 = target: T31, PLK3 (Homo sapiens, UniProt Q9H4B4); experiment: KINOMEscan; assay type: binding; details: read-out: Percent Control
T31 construct: purchased Eurofins DiscoverX KINOMEscan (scanMAX 468)

PRKG2 = target: T32, PRKG2 (Homo sapiens, UniProt Q13237); experiment: KINOMEscan; assay type: binding; details: read-out: Percent Control
T32 construct: purchased Eurofins DiscoverX KINOMEscan (scanMAX 468)
T32 sequence (Q13237 whole entry): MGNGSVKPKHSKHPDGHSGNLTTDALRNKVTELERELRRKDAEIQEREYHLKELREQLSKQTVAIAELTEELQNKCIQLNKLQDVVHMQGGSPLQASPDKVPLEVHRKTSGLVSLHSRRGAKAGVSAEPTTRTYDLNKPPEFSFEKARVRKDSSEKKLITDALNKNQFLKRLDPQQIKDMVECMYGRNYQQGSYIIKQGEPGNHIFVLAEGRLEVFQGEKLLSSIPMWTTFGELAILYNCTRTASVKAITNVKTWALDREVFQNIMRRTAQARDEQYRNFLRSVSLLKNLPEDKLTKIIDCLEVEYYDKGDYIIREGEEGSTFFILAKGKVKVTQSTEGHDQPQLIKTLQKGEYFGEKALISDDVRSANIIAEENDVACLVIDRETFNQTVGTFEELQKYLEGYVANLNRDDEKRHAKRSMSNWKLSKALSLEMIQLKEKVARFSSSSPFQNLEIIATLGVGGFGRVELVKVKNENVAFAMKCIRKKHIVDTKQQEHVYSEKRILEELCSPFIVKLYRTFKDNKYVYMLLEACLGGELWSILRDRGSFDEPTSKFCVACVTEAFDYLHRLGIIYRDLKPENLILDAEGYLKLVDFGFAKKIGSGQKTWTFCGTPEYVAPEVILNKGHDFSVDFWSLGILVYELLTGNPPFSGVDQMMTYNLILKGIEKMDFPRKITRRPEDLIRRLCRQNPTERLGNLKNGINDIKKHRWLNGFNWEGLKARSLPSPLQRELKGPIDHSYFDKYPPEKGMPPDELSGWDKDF

[1] = target: T33, RSK4(Kin.Dom.1-N-terminal) (Homo sapiens, UniProt Q9UK32); experiment: KINOMEscan; assay type: binding; details: read-out: Percent Control
T33 construct: RSK4(Kin.Dom.1-N-terminal); purchased Eurofins DiscoverX KINOMEscan (scanMAX 468)

SLK = target: T34, SLK (Homo sapiens, UniProt Q9H2G2); experiment: KINOMEscan; assay type: binding; details: read-out: Percent Control
T34 construct: purchased Eurofins DiscoverX KINOMEscan (scanMAX 468)

SRPK2 = target: T35, SRPK2 (Homo sapiens, UniProt P78362); experiment: KINOMEscan; assay type: binding; details: read-out: Percent Control
T35 construct: purchased Eurofins DiscoverX KINOMEscan (scanMAX 468)

STK35 = target: T36, STK35 (Homo sapiens, UniProt Q8TDR2); experiment: KINOMEscan; assay type: binding; details: read-out: Percent Control
T36 construct: purchased Eurofins DiscoverX KINOMEscan (scanMAX 468)

TNK2 = target: T37, TNK2 (Homo sapiens, UniProt Q07912); experiment: KINOMEscan; assay type: binding; details: read-out: Percent Control
T37 construct: purchased Eurofins DiscoverX KINOMEscan (scanMAX 468)

TYRO3 = target: T38, TYRO3 (Homo sapiens, UniProt Q06418); experiment: KINOMEscan; assay type: binding; details: read-out: Percent Control
T38 construct: purchased Eurofins DiscoverX KINOMEscan (scanMAX 468)

YANK1 = target: T39, YANK1 (Homo sapiens, UniProt Q8WU08); experiment: KINOMEscan; assay type: binding; details: read-out: Percent Control
T39 construct: purchased Eurofins (KINOMEscan, DiscoverX)

MmCLK1 = target: T40, MmCLK1 (Mus musculus, UniProt P22518); parameters: method as in ref 13 (a number printed in a supplementary file, which may have a reference list of its own: not looked up in the article's list); details: DB18, cited from earlier work
T40 construct: host or cells: bacteria
T40 sequence (P22518 whole entry): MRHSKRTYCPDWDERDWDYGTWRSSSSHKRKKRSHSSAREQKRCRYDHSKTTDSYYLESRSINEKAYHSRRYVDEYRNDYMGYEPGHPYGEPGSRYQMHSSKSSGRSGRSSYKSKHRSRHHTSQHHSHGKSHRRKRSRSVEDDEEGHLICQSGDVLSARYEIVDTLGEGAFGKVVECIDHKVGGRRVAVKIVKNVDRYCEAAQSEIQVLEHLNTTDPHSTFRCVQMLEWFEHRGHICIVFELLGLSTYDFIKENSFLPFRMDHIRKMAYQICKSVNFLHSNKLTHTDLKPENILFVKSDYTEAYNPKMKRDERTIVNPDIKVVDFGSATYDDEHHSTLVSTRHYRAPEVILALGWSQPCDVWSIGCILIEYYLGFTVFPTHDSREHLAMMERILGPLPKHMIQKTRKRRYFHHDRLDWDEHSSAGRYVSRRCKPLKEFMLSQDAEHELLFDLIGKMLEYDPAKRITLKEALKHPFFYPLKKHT

Caco2 = test system: Caco2; parameters: method as in ref 14 (a number printed in a supplementary file, which may have a reference list of its own: not looked up in the article's list); details: DB18[a], footnote not given; read-out: Cytotoxic studies IC50 Caco2; cited from earlier work

In the case of `Cc1ccc(-n2cc(COc3cccc4cnc(Nc5cccc(Cl)c5)nc34)nn2)c([N+](=O)[O-])c1` [DB18], the remaining binding at 1 µM (ALK) was 100%, the remaining binding at 1 µM (ASK2) was 99% and the remaining binding at 1 µM (AURKB) was 99%. The remaining binding at 1 µM (AURKC) was 100%, the remaining binding at 1 µM (CDC2L2) was 100% and the remaining binding at 1 µM (CSK) was 100%. The remaining binding at 1 µM (DAPK3) was 98%, the remaining binding at 1 µM (EGFR(T790M)) was 100% and the remaining binding at 1 µM (EIF2AK1) was 100%. The remaining binding at 1 µM (ERBB2) was 57%, the remaining binding at 1 µM (FLT3) was 84% and the remaining binding at 1 µM (FLT3-autoinhibited) was 100%. It also gave a remaining binding at 1 µM (FLT4) of 100%, a remaining binding at 1 µM (GRK4) of 100% and a remaining binding at 1 µM (IKK-epsilon) of 96%. For the same compound, the remaining binding at 1 µM (KIT(A829P)) was 100%, the remaining binding at 1 µM (LRRK2(G2019S)) was 95% and the remaining binding at 1 µM (MAP4K4) was 100%. It also gave a remaining binding at 1 µM (MAPKAPK2) of 100%, a remaining binding at 1 µM (MST1) of 100% and a remaining binding at 1 µM (MST4) of 97%. It also gave a remaining binding at 1 µM (MYO3B) of 84%, a remaining binding at 1 µM (NEK1) of 100% and a remaining binding at 1 µM (NEK4) of 99%. The remaining binding at 1 µM (NEK5) was 100%, the remaining binding at 1 µM (NIK) was 86% and the remaining binding at 1 µM (PCTK1) was 94%. For the same compound, the remaining binding at 1 µM (PFCDPK1(P.falciparum)) was 100%, the remaining binding at 1 µM (PIK3CD) was 100% and the remaining binding at 1 µM (PKN1) was 100%. The remaining binding at 1 µM (PLK3) was 98%, the remaining binding at 1 µM (PRKG2) was 100% and the remaining binding at 1 µM [1] was 96%. The remaining binding at 1 µM (SLK) was 100%, the remaining binding at 1 µM (SRPK2) was 87% and the remaining binding at 1 µM (STK35) was 100%. It also gave a remaining binding at 1 µM (TNK2) of 100%, a remaining binding at 1 µM (TYRO3) of 100% and a remaining binding at 1 µM (YANK1) of 100%. The “% of residual activity Mm_CLK1” value (MmCLK1; 1 µM) was 21%, the “% of residual activity Mm_CLK1” value (MmCLK1; 10 µM) was 11% and the pIC50 (Caco2) was 4.43.
